Consider two molecules from patent publication US12097174B2, “Methods and agents that enhance myogenic progenitor cell engraftment” (President and Fellows of Harvard College, priority 2018, dated 2024).

Entries after “also recorded” stand apart in the source; their conditions may differ.

The test system of experiment [1] is Zebrafish myogenic progenitor cells (ZeMPCs). Nature of the experiment: Limiting dilution engraftment assay (ELDA): cells treated ex vivo, transplanted into adult zebrafish, imaged at 7 dpt. The experiment is classed as in vivo. How it is done:
Donor cells were derived from embryos that contained a GFP cassette driven by the promoter for mylz2, a muscle-specific structural protein. Recipients were optically clear, immunocompromised adult prkdc−/− zebrafish. To perform a limiting dilution assay, three doses (n=100, 200, and 400 cells) were administered per treatment (n=10 engraftment events per treatment-dose combination). The estimated engrafting cell frequency was calculated using the Extreme Limiting Dilution Analysis (ELDA, Hu et. al. 2009), which provides the most likely estimate (MLE) of engrafting cell frequency.
Given that this group of 230 lipids is too many to be examined in mice, transplantation efficiency was instead examined via limit-dilution assays in 15 recipient zebrafish per compound after a brief (4 hour) ex vivo chemical exposure. Positive hits from this primary screening were rescreened in replicate transplantation experiments incorporating dose response testing.
Lipids are frequently found to enhance cell migration and homeostasis in blood and muscle tissue (Cencetti et al., 2014; Lahvic et al., 2018; Li et al., 2015; Oh et al., 2016), and so it was elected to screen mainly bioactive lipids in efforts to identify compounds that enhance ZeMPCs engraftment efficiency in vivo. Myogenic progenitor cells were treated for 4 hours with one of the 188 unique lipid compounds contained in the ICCB Known Bioactives Library. Compound-treated cells were then harvested and transplanted intramuscularly into both flanks of 5 different casper recipient fish, with transplants performed at each of 3 transplanted cell doses (25, 75 or 150 cells). In these studies, recipient fish received split-dose irradiation of 15 Gy at 2 days and 1 day prior to transplantation to suppress any immune responses to the transplanted cells. Engraftment efficiency was measured by imaging casper recipients at 7 dpt (FIG. 18A). […] For this secondary screening approach, cells were transplanted into prkdc^D3612ls casper fish, which are deficient in mature T and B cells, and assayed engraftment efficiency in the recipient fish 7 days post-transplantation. Two compounds were identified, lysophosphatidic acid (LPA) and niflumic acid (NFA), which increased ZeMPC engraftment efficiency in both of these assay systems (FIG. 12B).
Lipids from the ICCB Known Bioactives Library (enzolifesciences.com/BML-2840/iccb-known-bioactives-library) were diluted at a 1:100 ratio in transplantation media (zESC medium without bFGF and FBS) and added to prewashed in vitro expanded muscle cells. NFA (Cayman and Santa Cruz Biotechnology) and LPA (Cayman and Santa Cruz Biotechnology) were used for the secondary confirmation screening experiments. […] 4- to 8-month-old casper recipients received split-dose irradiation of 15 Gy each, either 2 days or 1 day before transplantation. For LDA screening, cells were transplanted into each side of 5 pre-irradiated casper recipient fish or 5 non-irradiated prkdc-mutant recipient zebrafish. At 7 dpt, the recipients were anaesthetized using a previously described method (Dang et al., 2016) and imaged using a fluorescent stereo microscope (Leica M165 FC). Successful engraftment was defined as the presence of GFP+ fibers. Variation in different experiments is caused by inherent variability in the in vitro ZeMPC derivation procedure, which results in differences in engrafting cell frequency across different derivation attempts. To mitigate the impact of such experimental variation on screening results, only LDA results for cells derived from the same cultures were compared. Comparison to a vehicle-treated experimental control was included in every transplantation experiment. Next, the chemical treated cell potency and vehicle-treated cell potency was measured using the Extreme Limiting Dilution Analysis (ELDA) software (Hu and Smyth, 2009). The ratio of the treated cell potency and vehicle-treated cell potency determine the engraftment efficiency fold increase value.

The test system of a further experiment is ZeMPCs. Nature of the experiment: Calcium imaging in Fura-2, AM treated ZeMPCs (single-cell imaging). The experiment is classed as cell-based, zebrafish. To be noted: 10 μM NFA, 5 μM LPA, 10 μM ionomycin; 10-20 seconds after loading. As for the experimental part: Fura-2, AM treated ZeMPCs were exposed to 10 μM NFA, 5 μM LPA, 10 μM lonomycin (as a positive control) and DMSO (as vehicle control) to visualize their effect on intracellular calcium ion concentration using single-cell imaging. […] Scale bar 50 μm.
(§1) The ZeMPCs and C2C12 cells were incubated with Fura-2, AM (Thermo Fisher Sci F1225), a cell permeant fluorescent calcium ion indicator, for 45 minutes at 28.5° C. and 37° C., respectively, followed by imaging with Celldiscoverer7 Microscope (Zeiss). 20 seconds after imaging initiation the treatment was added to the cells and continued for a total of 2-3 minutes.

The test system of another experiment is C2C12 cells. Nature of the experiment: Calcium imaging in Fura-2, AM treated C2C12 cells (single-cell imaging). The experiment is classed as cell-based, mouse. The conditions noted are these: 10 μM NFA, 5 μM LPA; 10-20 seconds after loading. How it is done:
Fura-2, AM treated C2C12 cells were exposed to 10 μM NFA, 5 μM LPA or DMSO as vehicle control to visualize the effect on intracellular calcium ion concentration using single-cell imaging. […] Scale bar 50 μm.
as §1

Consider `Cc1ccc(Cl)c(Nc2ccccc2C(=O)O)c1Cl` [MFA, meclofenamic acid], for which, in experiment [1] (concurrent injection of donor cells with 10 uM MFA), the engraftment frequency entry is “not sufficient to increase engraftment frequency”. Moreover, the “estimated engrafting cell frequency / engraftment” value in experiment [1] (donor cells treated 2 hours with 10 uM MFA before transplantation, vs vehicle, p=0.0367) was “increase the engraftment capacity; also recorded: optimally increase engraftment; also recorded: higher”.

On to `C[C@H](CCC(=O)O)C[C@H](C)C[C@H](C)C(=O)/C=C(\O)[C@H](C)C[C@H](C)C/C=C/[C@@H](C)[C@@H](O)[C@@H](C)[C@@H](O)C[C@@H]1CC[C@@](C)([C@H]2CC[C@@](C)([C@@H](C)O)O2)O1` [ionomycin], for which the “intracellular calcium ion concentration” value in the experiment with ZeMPCs and with C2C12 cells was “increase” throughout. For the same molecule, the “engraftment efficiency of treated ZeMPCs” value in experiment [1] (prkdc-mutant zebrafish, vs vehicle-treated controls) was “increased the engraftment efficiency”.
